Measured values: US20260308172A1, “TRICYCLIC COMPOUNDS FOR TREATMENT OF BACTERIAL INFECTIONS” (priority 2023, published 2026)
≈ marks a conversion by molar mass, not a printed value.

How the values were obtained:
[1] = tested on: Escherichia coli ATCC 25922; assay: Minimal Inhibitory Concentration (MIC) assay, Escherichia coli ATCC 25922; format: cell-based; conditions: ATCC25922, 20 h, read-out: MIC Escherichia coli ATCC25922
Procedure, shortened: (§1)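 Broth microdilution in cation-adjusted Mueller Hinton broth with 2-fold serial compound dilutions, inoculum 5×10^5 CFU/mL. Plates incubated 20 h at 35 °C in ambient air. MIC (μg/mL) is the lowest concentration preventing visible growth; K. pneumoniae 43816 is a rifampin-resistant mutant.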

[2] = tested on: Klebsiella pneumonia ATCC 43816; assay: Minimal Inhibitory Concentration (MIC) assay, Klebsiella pneumonia ATCC 43816; format: cell-based; conditions: Klebsiella pneumoniae, ATCC43816, 20 h, read-out: MIC Klebsiella pneumoniae ATCC43816
Procedure, shortened: as §1

[3] = Human Microsome Stability Assay; format: in vitro ADME; conditions: 1 μM compound, 0.5 mg/mL liver microsomal protein, 1 mM NADPH, pH 7.4, 37° C., 0-30 minutes; for CLint scaled at 1 µM: human, liver microsomes, read-out: Clearance of Human microsome
Description: The human microsomal stability assay is used for early assessment of metabolic stability of compounds of present invention in human liver microsomes. Human liver microsomes (Cat. NO.: 452117, Corning, USA) were pre-incubated with test compound for 10 minutes at 37° C. in 100 mM potassium phosphate buffer, pH 7.4. The reactions were initiated by adding NADPH regenerating system. The final incubation mixtures contained 1 μM compound, 0.5 mg/mL liver microsomal protein, 1 mM MgCl2 and 1 mM NADPH in 100 mM potassium phosphate buffer, pH 7.4. After incubation times of 0, 3, 6, 9, 15 and 30 minutes at 37° C., 300 μL of cold acetonitrile (including internal standard) was added to 100 μL incubation mixture to terminate the reaction. Following precipitation and centrifugation, the amount of compound remaining in the samples were determined by LC-MS/MS. Controls of no NADPH regenerating system at zero and 30 minutes were also prepared and analyzed.

Structure (SMILES) | MIC [1] | MIC [2] | CLint scaled at 1 µM [3] | Clearance of Human microsome [3]
O=C1O[C@@H](CO)[C@H]2COc3cc(S(=O)(=O)N4CCN(c5cc(C(F)(F)C6C7CNCC76)cc(Cl)n5)CC4)ccc3N12 (stereo partly drawn) [Example 034, (3R,3aR)-7-[4-[4-[3-azabicyclo[3.1.0]hexan-6-yl(difluoro)methyl]-6-chloro-2-pyridyl]piperazin-1-yl]sulfonyl-3-(hydroxymethyl)-3a,4-dihydro-3H-oxazolo[4,3-c][1,4]benzoxazin-1-one] | 0.28 µg/mL (≈ 0.457 µM) | 0.57 µg/mL (≈ 0.931 µM) | 12.7 mL/min/kg | –
NCCCNC(=O)[C@H]1CC[C@H](C(F)(F)c2cc(Cl)nc(N3CCN(S(=O)(=O)c4ccc5c(c4)OC[C@@H]4[C@H](CO)OC(=O)N54)CC3)c2)CC1 [Example 046, 4-[[2-[4-[[(3R,3aR)-3-(hydroxymethyl)-1-oxo-3a,4-dihydro-3H-oxazolo[4,3-c][1,4]benzoxazin-7-yl]sulfonyl]piperazin-1-yl]-6-chloro-4-pyridyl]-difluoro-methyl]-N-(3-aminopropyl)cyclohexanecarboxamide] | 0.32 µg/mL (≈ 0.449 µM) | 0.32 µg/mL (≈ 0.449 µM) | – | 6.2 mL/min/kg
O=C1O[C@@H](CO)[C@H]2COc3cc(S(=O)(=O)N4CCN(c5cc(C(F)(F)C6CNC6)cc(Cl)n5)CC4)ccc3N12 [Example 035, (3R,3aR)-7-[4-[4-[azetidin-3-yl(difluoro)methyl]-6-chloro-2-pyridyl]piperazin-1-yl]sulfonyl-3-(hydroxymethyl)-3a,4-dihydro-3H-oxazolo[4,3-c][1,4]benzoxazin-1-one] | 2.2 µg/mL (≈ 3.75 µM) | 2.19 µg/mL (≈ 3.74 µM) | 10.9 mL/min/kg | –
NC[C@H]1OC(=O)N2c3ccc(S(=O)(=O)N4CCN(c5cc(C(F)(F)C6CCCNC6)cc(Cl)n5)CC4)cc3OC[C@H]12 (relative stereo) [Example 009] | 0.66 µg/mL (≈ 1.08 µM) | 0.66 µg/mL (≈ 1.08 µM) | – | 6.2 mL/min/kg
NCCCN(CCCN)C(=O)[C@H]1CC[C@H](C(F)(F)c2cc(Cl)nc(N3CCN(S(=O)(=O)c4ccc5c(c4)OC[C@H]4[C@H](CO)OC(=O)N54)CC3)c2)CC1 [Example 048, 4-[[2-[4-[[(3R,3aS)-3-(hydroxymethyl)-1-oxo-3a,4-dihydro-3H-oxazolo[4,3-c][1,4]benzoxazin-7-yl]sulfonyl]piperazin-1-yl]-6-chloro-4-pyridyl]-difluoro-methyl]-N,N-bis(3-aminopropyl)cyclohexanecarboxamide] | 0.64 µg/mL (≈ 0.831 µM) | 0.64 µg/mL (≈ 0.831 µM) | 12.9 mL/min/kg | –
NCCCNC(=O)/C=C/C(F)(F)c1cc(Cl)nc(N2CCN(S(=O)(=O)c3ccc4c(c3)OC[C@@H]3[C@H](CO)OC(=O)N43)CC2)c1 [Example 044, (E)-4-[2-[4-[[(3R,3aR)-3-(hydroxymethyl)-1-oxo-3a,4-dihydro-3H-oxazolo[4,3-c][1,4]benzoxazin-7-yl]sulfonyl]piperazin-1-yl]-6-chloro-4-pyridyl]-N-(3-aminopropyl)-4,4-difluoro-but-2-enamide] | 2.4 µg/mL (≈ 3.65 µM) | 2.41 µg/mL (≈ 3.67 µM) | 7 mL/min/kg | –
Cc1cc(C(F)(F)F)nc(N2CCN(S(=O)(=O)c3ccc4c(c3)OC[C@H]3[C@@H](CN)OC(=O)N43)CC2)n1 (relative stereo) [Example 006] | 0.44 µg/mL (≈ 0.833 µM) | 0.88 µg/mL (≈ 1.67 µM) | 12.5 mL/min/kg | –
O=C1O[C@H](CO)[C@@H]2COc3cc(S(=O)(=O)N4CCN(c5cc(C(F)(F)C6CCNCC6)cc(Cl)n5)CC4)ccc3N12 [Example 029, (3S,3aS)-7-[4-[6-chloro-4-[difluoro(4-piperidyl)methyl]-2-pyridyl]piperazin-1-yl]sulfonyl-3-(hydroxymethyl)-3a,4-dihydro-3H-oxazolo[4,3-c][1,4]benzoxazin-1-one] | 1.1 µg/mL (≈ 1.79 µM) | 1.14 µg/mL (≈ 1.85 µM) | 11.6 mL/min/kg | –
Cc1cc(C(F)(F)F)nc(N2CCN(S(=O)(=O)c3ccc4c(c3)OC[C@H]3[C@@H](CN5CC(N)C5)OC(=O)N43)CC2)n1 [Example 025, (3R,3aS)-3-[(3-aminoazetidin-1-yl)methyl]-7-[4-[4-methyl-6-(trifluoromethyl)pyrimidin-2-yl]piperazin-1-yl]sulfonyl-3a,4-dihydro-3H-oxazolo[4,3-c][1,4]benzoxazin-1-one] | 0.91 µg/mL (≈ 1.56 µM) | 1.82 µg/mL (≈ 3.12 µM) | 12.2 mL/min/kg | –
